Values after ≈ are worked out from the molar mass of the structure shown. Like-named read-outs stand apart in the source and are kept apart here.
Experiments:
[1] = test system: P. aeruginosa; assay: Biofilm growth assay (spreading biofilm on semi-solid agar); type: cell-based; conditions: for IC85: Pseudomonas aeruginosa
Text: (§1) "Biofilm Growth Assay" refers to an assay performed on semi-solid agar surface where the bacteria collectively move out from an inoculation point. To those skilled in the art, the act of bacteria collectively moving out from an inoculation point on a semi-solid surface may be referred to as swarming or a spreading biofilm. (Anderson, et al Microbiology, 2003, 149, 37-46; Daniels, et al. FEMS Microbiology Reviews, 2004, 28, 261-289). The procedure to perform this assay is described in detail in the Examples. This type of surface motility by bacteria has been reported in the literature by those skilled in the art.
(§2) The biofilm growth assay was carried out to measure swarming or biofilm spreading on semi-solid agar media in round plates (for example, 100 × 15 mm), also referred to as Petri dishes. For E. coli, the plates contained LB medium with 0.6% agar and 0.5% glucose. P. aeruginosa plates were made with M8 agar supplemented with 0.2% glucose, 100 µM CaCl2, 1 mM MgSO4, and 0.5% Casamino acids. The agar plates of this assay consisted of 0.4% to 0.7% agar (Bacto or Noble agar), although other media may also be used as described in the literature and known to those skilled in the art. Test compounds at the desired concentration were added to the cooled, autoclaved media. Portions of the media were then poured into the plates (20 mL/plate), and the plates allowed to dry at room temperature for approximately 3 to 4 hours. Alternatively, however, plates may be dried in a laminar flow hood for approximately fifteen to twenty minutes. Overnight cultures were grown in a 37°C shaker in LB (E. coli) or TSB (P. aeruginosa). Plates were inoculated by placing 5 µL of the appropriate overnight culture in the centers of the plates. The plates then were incubated overnight at 37°C. The area of the zone of spreading bacteria was then measured and replicates are averaged. Percent inhibition was calculated as 100 × (area without compound - area with compound)/(area without compound). An active compound was considered that which reduces the area of the spreading biofilm compared to negative controls by greater than or equal to 85%. The values shown in Table 1 are the concentrations of compounds (µg/ml) tested in the biofilm growth assay that reduce the area of the spreading biofilm compared to negative controls by greater than or equal to 85% unless noted differently in Table 1. A > ("greater than" symbol) as used in Table 1 is well understood to those skilled in the art as an indication that the listed concentration was not effective at this concentration.
(§3) All of the compounds shown in Tables 2, 3, 4, and 5, below, were prepared semi-synthetically from oleanolic acid, except for Compounds 2 and 3. Compound 2 was prepared from ursolic acid. Compound 3 was prepared from hederagenin, but could also be prepared from an oleanolic acid analog with a hydroxyl at C23 or C24. These compounds were tested in the spreading biofilm assay according to the methods detailed in Example I, above. The values shown in Tables 2, 3, 4, and 5 are the concentrations of compounds tested in the biofilm growth assay that reduce the area of the spreading biofilm compared to negative controls by greater than or equal to 85%. Table 2. Compound 1 and its Analogs and their inhibitory concentrations in the biofilm growth assay as detailed in Example I, above

[2] = test system: E. coli; assay: as above; type: cell-based; conditions: for IC85: Escherichia coli, read-out: E. coli
Text: as §1, §2, §3

[3] = Table 2, concentration that reduces the area of the spreading biofilm by >= 85%, read-out: P. aeruginosa
[4] = Table 2, concentration that reduces the area of the spreading biofilm by >= 85%
[5] = Table 1, concentration that reduces the area of the spreading biofilm vs negative controls by >= 85%, > means not effective at this concentration, read-out: P. aeruginosa
[6] = Table 1, concentration that reduces the area of the spreading biofilm vs negative controls by >= 85%, > means not effective at this concentration
[7] = Table 3, concentration that reduces the area of the spreading biofilm by >= 85%, read-out: P. aeruginosa
[8] = Table 3, concentration that reduces the area of the spreading biofilm by >= 85%

Structure (SMILES) | IC85 [1, 3] [µg/mL] | IC85 [2, 4] [µg/mL] | other results
CN(C)c1ccc(C2=C3C4CC(C)(C)CC[C@]4(C(=O)O)CC[C@@]3(C)[C@]3(C)CCC4C(C)(C)c5n[nH]c(N)c5C[C@]4(C)C3C2)cc1 (stereo in doubt) [Compound 10, (4aS,6aS,6bR,13aR)-12-Amino-15-(4-(dimethylamino)phenyl)-2,2,6a,6b,9,9,13a-heptamethyl-2,3,4,4a,5,6,6a,6b,7,8,8a,9,11,13,13a,13b,14,15b-octadecahydro-1H-chryseno[1,2-f]indazole-4a-carboxylic acid] | 0.5 (≈ 0.816 µM) | 1 (≈ 1.63 µM) | –
C=C(C)[C@@H]1CC[C@]2(CO)CC[C@]3(C)[C@H](CC[C@@H]4[C@@]5(C)CC[C@H](O)C(C)(C)[C@@H]5CC[C@]43C)[C@@H]12 [Betulin, reference compound] | – | – | IC85 [1, 5]: 16 µg/mL (≈ 36.1 µM); IC85 [2, 6]: > 16 µg/mL
C=C(C)[C@@H]1CC[C@]2(C(=O)O)CC[C@]3(C)[C@H](CC[C@@H]4[C@@]5(C)CC[C@H](O)C(C)(C)[C@@H]5CC[C@]43C)[C@@H]12 [Betulinic acid, reference compound] | – | – | IC85 [1, 5]: > 16 µg/mL; IC85 [2, 6]: > 16 µg/mL
CC1(C)CC[C@]2(C(=O)O)CC[C@]3(C)C(=CCC4[C@@]5(C)Cc6cc[nH]c6C(C)(C)C5CC[C@]43C)C2C1 (some centres unmarked) [C] | – | – | IC85 [1, 5]: 0.5 µg/mL (≈ 1.05 µM); IC85 [2, 6]: 0.5 µg/mL (≈ 1.05 µM)
CC1(C)CC[C@]2(C(=O)O)CC[C@]3(C)C(=CCC4[C@@]5(C)Cc6c(n[nH]c6N)C(C)(C)C5CC[C@]43C)C2C1 (stereo partly drawn) [Compound 2, (4aS,6aS,6bR,13aR)-12-Amino-2,2,6a,6b,9,9,13a-heptamethyl-2,3,4,4a,5,6,6a,6b,7,8,8a,9,11,13,13a,13b,14,15b-octadecahydro-1H-chryseno[1,2-f]indazole-4a-carboxylic acid] | – | – | P. aeruginosa [1, 4]: 0.5 µg/mL; E. coli [2, 4]: 1 µg/mL
C[C@@H]1c2n[nH]c(N)c2C[C@]2(C)C3CC=C4[C@@H]5CC(C)(C)CC[C@]5(C(=O)O)CC[C@@]4(C)[C@]3(C)CC[C@@H]12 (stereo partly drawn) [Compound 3, (4aS,6aS,6bR,8aS,9S,13aS,15bS)-12-Amino-2,2,6a,6b,9,13a-hexamethyl-2,3,4,4a,5,6,6a,6b,7,8,8a,9,11,13,13a,13b,14,15b-octadecahydro-1H-chryseno[1,2-f]indazole-4a-carboxylic acid] | 0.5 (≈ 1.04 µM) | 1 (≈ 2.08 µM) | –
CC1=C2[C@@H]3CC(C)(C)CC[C@]3(C(=O)O)CC[C@@]2(C)[C@]2(C)CC[C@H]3C(C)(C)c4n[nH]c(N)c4C[C@]3(C)C2C1 (stereo partly drawn) [Compound 4, (4aS,6aS,6bR,8aR,13aR,15bS)-12-Amino-2,2,6a,6b,9,9,13a,15-octamethyl-2,3,4,4a,5,6,6a,6b,7,8,8a,9,11,13,13a,13b,14,15b-octadecahydro-1H-chryseno[1,2-f]indazole-4a-carboxylic acid] | 0.25 (≈ 0.492 µM) | 1 (≈ 1.97 µM) | –
C/C=C/C1=C2[C@@H]3CC(C)(C)CC[C@]3(C(=O)O)CC[C@@]2(C)[C@]2(C)CC[C@H]3C(C)(C)c4n[nH]c(N)c4C[C@]3(C)C2C1 (stereo partly drawn) [Compound 5, (4aS,6aS,6bR,8aR,13aR,15bS)-12-Amino-2,2,6a,6b,9,9,13a-heptamethyl-15-((E)-prop-1-enyl)-2,3,4,4a,5,6,6a,6b,7,8,8a,9,11,13,13a,13b,14,15b-octadecahydro-1H-chryseno[1,2-f]indazole-4a-carboxylic acid] | 0.5 (≈ 0.937 µM) | 1 (≈ 1.87 µM) | –
CC1(C)CC[C@]2(C(=O)O)CC[C@]3(C)C(=C(c4cc[nH]c4)CC4[C@@]5(C)Cc6c(n[nH]c6N)C(C)(C)[C@@H]5CC[C@]43C)[C@@H]2C1 (stereo partly drawn) [Compound 6, (4aS,6aS,6bR,8aR,13aR,15bS)-12-Amino-2,2,6a,6b,9,9,13a-heptamethyl-15-(1H-pyrrol-3-yl)-2,3,4,4a,5,6,6a,6b,7,8,8a,9,11,13,13a,13b,14,15b-octadecahydro-1H-chryseno[1,2-f]indazole-4a-carboxylic acid] | – | 0.25 (≈ 0.447 µM) | –
CC1(C)CC[C@]2(C(=O)O)CC[C@]3(C)C(=C(c4ccco4)CC4[C@@]5(C)Cc6c(n[nH]c6N)C(C)(C)C5CC[C@]43C)C2C1 (stereo partly drawn) [Compound 7, (4aS,6aS,6bR,13aR)-12-Amino-15-(furan-2-yl)-2,2,6a,6b,9,9,13a-heptamethyl-2,3,4,4a,5,6,6a,6b,7,8,8a,9,11,13,13a,13b,14,15b-octadecahydro-1H-chryseno[1,2-f]indazole-4a-carboxylic acid] | 0.25 (≈ 0.447 µM) | 1 (≈ 1.79 µM) | –
CC1(C)CC[C@]2(C(=O)O)CC[C@]3(C)C(=C(c4c[nH]c5ccccc45)CC4[C@@]5(C)Cc6c(n[nH]c6N)C(C)(C)[C@@H]5CC[C@]43C)[C@@H]2C1 (stereo partly drawn) [Compound 8, (4aS,6aS,6bR,8aR,13aR,15bS)-12-Amino-15-(1H-indol-3-yl)-2,2,6a,6b,9,9,13a-heptamethyl-2,3,4,4a,5,6,6a,6b,7,8,8a,9,11,13,13a,13b,14,15b-octadecahydro-1H-chryseno[1,2-f]indazole-4a-carboxylic acid] | 0.25 (≈ 0.411 µM) | 1 (≈ 1.64 µM) | –
CC1(C)CC[C@]2(C(=O)O)CC[C@]3(C)C(=C(c4c[nH]c(CN5CCOCC5)c4)CC4[C@@]5(C)Cc6c(n[nH]c6N)C(C)(C)[C@@H]5CC[C@]43C)[C@@H]2C1 (stereo partly drawn) [Compound 9, (4aS,6aS,6bR,8aR,13aR,15bS)-12-Amino-2,2,6a,6b,9,9,13a-heptamethyl-15-(5-(morpholinomethyl)-1H-pyrrol-3-yl)-2,3,4,4a,5,6,6a,6b,7,8,8a,9,11,13,13a,13b,14,15b-octadecahydro-1H-chryseno[1,2-f]indazole-4a-carboxylic acid] | 0.5 (≈ 0.76 µM) | 1 (≈ 1.52 µM) | –
CC1(C)CC[C@]2(C(=O)O)CC[C@]3(C)C(=C(c4ccc5c(c4)CCN5)CC4[C@@]5(C)Cc6c(n[nH]c6N)C(C)(C)C5CC[C@]43C)C2C1 (stereo partly drawn) [Compound 11, (4aS,6aS,6bR,13aR)-12-Amino-15-(indolin-5-yl)-2,2,6a,6b,9,9,13a-heptamethyl-2,3,4,4a,5,6,6a,6b,7,8,8a,9,11,13,13a,13b,14,15b-octadecahydro-1H-chryseno[1,2-f]indazole-4a-carboxylic acid] | 0.5 (≈ 0.818 µM) | 0.5 (≈ 0.818 µM) | –
C=CC1=C2[C@@H]3CC(C)(C)CC[C@]3(C(=O)O)CC[C@@]2(C)[C@]2(C)CC[C@H]3C(C)(C)c4n[nH]c(N)c4C[C@]3(C)C2C1 (stereo partly drawn) [Compound 13, (4aS,6aS,6bR,8aR,13aR,15bS)-12-Amino-2,2,6a,6b,9,9,13a-heptamethyl-15-vinyl-2,3,4,4a,5,6,6a,6b,7,8,8a,9,11,13,13a,13b,14,15b-octadecahydro-1H-chryseno[1,2-f]indazole-4a-carboxylic acid] | – | – | IC85 [1, 7]: 0.5 µg/mL (≈ 0.962 µM); IC85 [2, 8]: 1 µg/mL (≈ 1.92 µM)
CCC1=C2[C@@H]3CC(C)(C)CC[C@]3(C(=O)O)CC[C@@]2(C)[C@]2(C)CC[C@H]3C(C)(C)c4n[nH]c(N)c4C[C@]3(C)C2C1 (stereo partly drawn) [Compound 14, (4aS,6aS,6bR,8aR,13aR,15bS)-12-Amino-15-ethyl-2,2,6a,6b,9,9,13a-heptamethyl-2,3,4,4a,5,6,6a,6b,7,8,8a,9,11,13,13a,13b,14,15b-octadecahydro-1H-chryseno[1,2-f]indazole-4a-carboxylic acid] | – | – | IC85 [1, 7]: 0.5 µg/mL (≈ 0.958 µM); IC85 [2, 8]: 2 µg/mL (≈ 3.83 µM)
C[C@H]1[C@H](C)CC[C@]2(C(=O)O)CC[C@]3(C)C(=CC[C@@H]4[C@@]5(C)C[C@@H](O)[C@H](O)C(C)(C)[C@@H]5CC[C@]43C)[C@H]12 [Corosolic acid, reference compound] | – | – | IC85 [1, 5]: 4 µg/mL (≈ 8.46 µM)
CC1(C)CC[C@]2(C(=O)O)CC[C@]3(C)C(=CC[C@@H]4[C@@]5(C)C[C@@H](O)[C@H](O)C(C)(C)[C@@H]5CC[C@]43C)[C@@H]2C1 [Maslinic acid, reference compound] | – | – | IC85 ([1]; read-out: P. aeruginosa (µg/ml)): 4 µg/mL (≈ 8.46 µM)
C[C@H]1[C@H](C)CC[C@]2(C)CC[C@]3(C)C(=CC[C@@H]4[C@@]5(C)CC[C@H](O)C(C)(C)[C@@H]5CC[C@]43C)[C@H]12 [alpha-Amyrin, reference compound] | – | – | P. aeruginosa [1, 6]: > 32 µg/mL
